Assay results published in patent US9670550B2, “Method for examination of carcinogenic risk” (JAPANESE FOUNDATION FOR CANCER RESEARCH, priority 2013, dated 2017).

Assays:
liver cancer [1] = assay: Liver cancer development in mice fed high-fat diets and given antibiotic cocktail, with oral deoxycholic acid; assay type: in vivo; conditions: 40 μg/g body weight orally three times a week, high-fat diet + antibiotic cocktail
Description: From the 13th week after the start of the raising, the antibiotic cocktail was administered to mice fed high-fat diets, which were then further raised. To these mice, 40 μg/g body weight of deoxycholic acid (DCA) or only a vehicle as a control was orally administered three times a week (FIG. 5A). […] The cancer was rarely developed in the control mouse group given only the vehicle, and even if the cancer was developed, its tumor size was small. On the other hand, the deoxycholic acid administration group had multiple cancer (25 or more tumors per individual), and also, its size was large.

liver cancer [2] = assay: Liver cancer development in DMBA-treated mice fed high-fat diets, antibiotic given in drinking water; assay type: in vivo; conditions: high-fat diet, antibiotic in drinking water from 13 weeks old, dissected at the 30th week
Source text: An acetone solution containing 0.5% of the carcinogenic substance DMBA (7,12-dimethylberiz[a]anthracene) was applied once to the backs of wild-type (C57BL/6) neonatal mice. The neonatal mice were raised together with their mother mouse by feeding with normal diets (ND) or high-fat diet (HFD) until 4 weeks old. The high-fat diets used were D12492 (Rodent Diet with 60% kcal % Fat; Research Diets, Inc., USA). The neonatal mice were weaned at 4 weeks old and subsequently raised with normal diets or high-fat diet. At 30 weeks old, their livers and lungs were excised, and the presence or absence of cancer development was analyzed. The average body weight of the mice at the time of dissection was 33 g for the mice fed normal diets and 51 g for the mice fed high-fat diets. The mice fed high-fat diets had approximately 1.5 times the body weights of the mice fed normal diets.
DMBA was applied to wild-type neonatal mice, followed by high-fat diet feeding. From 13 weeks old, an antibiotic cocktail (4Abx, antibiotic cocktail administration group) or vancomycin (VCM, vancomycin administration group) mixed with drinking water was administered to the mice. At the 30th week after the start of the raising, their livers were excised, and liver cancer development was analyzed. […]
The mice of each group were dissected at the 30th week, and liver cancer development was analyzed (FIGS. 3C and 3D).

intestinal bacteria = assay: Level of gene encoding intestinal bacterial 16S rRNA after antibiotic administration; assay type: in vivo; conditions: 17 weeks after antibiotic administration, 30 weeks after birth; high-fat diet; in drinking water; 3 mice per group
Description: DMBA was applied to wild-type neonatal mice, followed by high-fat diet feeding. From 13 weeks old, an antibiotic cocktail (4Abx, antibiotic cocktail administration group) or vancomycin (VCM, vancomycin administration group) mixed with drinking water was administered to the mice. At the 30th week after the start of the raising, their livers were excised, and liver cancer development was analyzed. On the other hand, the raising of a control group was continued in the same way as the aforementioned raising up to the 13th week. The antibiotic cocktail contained ampicillin (1 g/l), neomycin (1 g/l), metronidazole (1 g/l), and vancomycin (500 mg/l). In the case of administering vancomycin alone, 500 mg/l vancomycin was administered.

gut microbiota = assay: Gut microbiota analysis of feces by PCR of 16S rRNA gene; assay type: in vivo, mice
Description: In this Example, in order to search for an intestinal bacterium related to cancer development, how the gut microbiota was atlered was analyzed (FIG. 4). In the experimental schedule shown in FIG. 3A, 3 groups were used: a group fed normal diets, a group fed high-fat diets, and a group fed high-fat diets and also given vancomycin. At the 30th week after the start of the raising, their feces were recovered, and the gut microbiota was analyzed.
The gut microbiota was identified by PCR analysis (Non Patent Literatures 11 and 12). Specifically, DNA was extracted from the feces and purified. The gene encoding 16S rRNA in many types of bacteria was amplified by PCR using universal primers. The V1-V4 hypervariable regions were further amplified, followed by identification.

SMILES	liver tumor size (liver cancer [1]; n=3)	tumor number per individual (liver) (liver cancer [1]; n=3) [tumors per individual]	liver tumor development (liver cancer [1]; vs vehicle)	liver cancer development (tumor number and size) as compared with the control (liver cancer [2])	amount of intestinal bacteria (level of gene encoding intestinal bacterial 16s rRNA) (intestinal bacteria)	Gram-negative microbiota, proportion on average (gut microbiota; HFD+VCM group, average (FIG. 4)) [%]	cluster XI of the genus Clostridium in gut microbiota (gut microbiota; feces at the 30th week, high-fat diets + vancomycin, n=2) [%]
C[C@H](CCC(=O)O)[C@H]1CC[C@H]2[C@@H]3CC[C@@H]4C[C@H](O)CC[C@]4(C)[C@H]3C[C@H](O)[C@]12C [deoxycholic acid]	large	≥ 25	developed a large number of liver tumors				
CN[C@H](CC(C)C)C(=O)N[C@H]1C(=O)N[C@@H](CC(N)=O)C(=O)N[C@H]2C(=O)N[C@H]3C(=O)N[C@H](C(=O)N[C@H](C(=O)O)c4cc(O)cc(O)c4-c4cc3ccc4O)[C@H](O)c3ccc(c(Cl)c3)Oc3cc2cc(c3O[C@@H]2O[C@H](CO)[C@@H](O)[C@H](O)[C@H]2O[C@H]2C[C@](C)(N)[C@H](O)[C@H](C)O2)Oc2ccc(cc2Cl)[C@H]1O [vancomycin]				developed no liver cancer or developed liver cancer with a smaller tumor number and a smaller size	decreased into a very small level	99	0
